Assay results from patent US12612411B1, “Imidazopyrazine derivatives, process for preparation thereof, and their uses as luciferins” (INSTITUT PASTEUR, priority 2017, dated 2026).

Target: T1, nanoKAZ luciferase (Oplophorus gracilirostris, UniProt Q9GV45, A31E/A60N/A81I/F95D/I117V/K70R/L54V/L99Q/M102K/N193R/P142E/Q151K/Q38R/Q45L/V71I/Y165I)
T1 construct: luciferase catalytic domain (nanoKAZ, 19 kDa) from the Oplophorus-derived luciferase; host or cells: cell-free: 1-Step Human Coupled IVT Kit, pT7CFE1-based vector
T1 sequence (Q9GV45 other isoform, or with tags, fused parts or gaps with the stated changes): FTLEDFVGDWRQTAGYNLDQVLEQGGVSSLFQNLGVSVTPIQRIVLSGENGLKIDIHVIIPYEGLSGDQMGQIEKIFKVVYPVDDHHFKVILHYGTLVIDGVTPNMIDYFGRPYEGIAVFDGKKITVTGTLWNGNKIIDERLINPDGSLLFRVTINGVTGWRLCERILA
Experiment: In vitro bioluminescence screening of imidazo[1,2-a]pyrazin-3(7H)-ones with nanoKAZ expressed in vitro (96-well luminometer, 2 h kinetic)
Assay type: biochemical
Settings: second table, furimazine = 1; for V1: maximum intensity, normalized using furimazine (Q-1) as a reference: luciferins made in situ from O-protected P
Experimental: General protocol for the generation of solutions of imidazo[1,2-a]pyrazin-3(7H)-one Q by acidic hydrolysis of imidazo[1,2-a]pyrazin-3-yl acetate derivatives P. The considered acetate P (1 mg) was dissolved in DMSO (0.2 mL) and then diluted by adding a solution of acidic ethanol (0.3 ml) made from the addition of 37% hydrochloric acid (100 μl) on 100% ethanol (12 mL). This 0.5 mL solution was incubated at 50° C. for 2 hours to give a stock solution which was then stored at −80° C. […] Nota: these conditions are only adapted to the hydrolysis of the protecting group (as defined above) of the oxygen on position 2 of the imidazo[1,2-a]pyrazine ring system and not to the hydrolysis of any additional acetyl groups eventually present elsewhere on the substrate of this reaction.
The representative bioluminescence curves shown in the FIG. 2 provided an assessment for furimazine (Q-1), 8-benzyl-2-(furan-2-ylmethyl)-6-(4-hydroxyphenyl)imidazo[1,2-a]pyrazin-3 (7/1)-one (Q-80), 8-(2-fluorobenzyl)-2-(furan-2-ylmethyl)-6-phenylimidazo[1,2-a]pyrazin-3(7H)-one (Q-84), and 8-(2-fluorobenzyl)-2-((5-methylfuran-2-yl)methyl)-6-phenylimidazo[1,2-a]pyrazin-3(7H)-one (Q-85) was obtained using a luciferase expressed in vitro as described in the following. The nanoKAZ DNA template was cloned into Thermo Scientific pT7CFE1-based vector and nanoKAZ was expressed using ThermoFisher Scientific 1-Step Human Coupled IVT Kit—DNA (ref. 88881) according to the manufacturer instructions. The resulting reaction mix was diluted 400 times in buffer (DPBS (Gibco)+0.1% (v/v) Tween 20) and conserved at −80° C. The screening of the imidazo[1,2-a]pyrazin-3(7H)-ones was performed in 96 well plates using 50 μL/well of a 1/20 dilution in DPBS (Gibco)+0.1% (v/v) Tween 20 of the nanoKAZ solution.
To illustrate the bioluminescence properties improvement achieved for many of the imidazo[1,2-a]pyrazin-3(7H)-ones described here, four values are provided in Table 1: maximum intensity (V1), signal half-life (V2), area under the curve for ten minutes (V3), and area under the curve for two hours (V4), normalized using furimazine (Q-1) as a reference.
The bioluminescence properties of the tested compounds are considered to be improved when at least one of the values V1-V4 is above 1, and when none of the V1-V4 values is 0.05 or below.
By following the hydrolysis protocol described above, the following imidazo[1,2-a]pyrazin-3(7H)-ones luciferins Q were made in situ from the corresponding O-protected imidazo[1,2-a]pyrazines P and evaluated for their bioluminescence properties (maximum intensity (V1), signal half-life (V2), area under the curve for […], normalized using furimazine (Q-1) as a reference): […]

Row | Structure (SMILES) | V3: area under the curve for 2 hours, normalized using furimazine (Q-1) as a reference | V4: area under the curve for ten minutes, normalized using furimazine (Q-1) as a reference | V1: maximum intensity, normalized using furimazine (Q-1) as a reference
1 | Cc1ccc(Cc2nc3c(Cc4c(F)cccc4F)[nH]c(-c4ccccc4)cn-3c2=O)o1 [Q-121, 8-(2,6-difluorobenzyl)-2-((5-methylfuran-2-yl)methyl)-6-phenylimidazo[1,2-a]pyrazin-3(7H)-one] | 1.43 | 1.37 | 1.41
2 | Cc1cc(Cc2nc3c(Cc4cccc(F)c4F)[nH]c(-c4ccccc4)cn-3c2=O)oc1C [Q-124, 8-(2,3-difluorobenzyl)-2-((4,5-dimethylfuran-2-yl)methyl)-6-phenylimidazo[1,2-a]pyrazin-3(7H)-one] | 2.29 | 1.03 | 2.43
3 | CCc1ccc(Cc2nc3c(Cc4cccc(F)c4F)[nH]c(-c4ccccc4)cn-3c2=O)o1 [Q-127, 8-(2,3-difluorobenzyl)-2-((5-ethylfuran-2-yl)methyl)-6-phenylimidazo[1,2-a]pyrazin-3(7H)-one] | 2.69 | 1.55 | 2.81
4 | CCc1ccc(Cc2nc3c(Cc4c(F)cccc4F)[nH]c(-c4ccccc4)cn-3c2=O)o1 [Q-129, 8-(2,6-difluorobenzyl)-2-((5-ethylfuran-2-yl)methyl)-6-phenylimidazo[1,2-a]pyrazin-3(7H)-one] | 1.37 | 1.32 | 1.41
5 | Cc1cc(Cc2nc3c(Cc4ccccc4F)[nH]c(-c4ccccc4)cn-3c2=O)oc1C [Q-131, 2-((4,5-dimethylfuran-2-yl)methyl)-8-(2-fluorobenzyl)-6-phenylimidazo[1,2-a]pyrazin-3(7H)-one] | 1.9 | 1.02 | 2.01
6 | Cc1cc(Cc2nc3c(Cc4cccc(F)c4)[nH]c(-c4ccccc4)cn-3c2=O)oc1C [Q-132, 2-((4,5-dimethylfuran-2-yl)methyl)-8-(3-fluorobenzyl)-6-phenylimidazo[1,2-a]pyrazin-3(7H)-one] | 1.44 | 1 | 1.5
7 | CCCc1ccc(Cc2nc3c(Cc4ccccc4)[nH]c(-c4ccccc4)cn-3c2=O)o1 [Q-133, 8-benzyl-6-phenyl-2-((5-propylfuran-2-yl)methyl)imidazo[1,2-a]pyrazin-3(7H)-one] | 1.23 | 1.33 | 1.26
8 | CCc1cc(Cc2nc3c(Cc4cccc(F)c4F)[nH]c(-c4ccccc4)cn-3c2=O)oc1C [Q-135, 8-(2,3-difluorobenzyl)-2-((4-ethyl-5-methylfuran-2-yl)methyl)-6-phenylimidazo[1,2-a]pyrazin-3(7H)-one] | 0.51 | 1.19 | 1.26
